# Measurements taken from patent US8754052B2, “Treatment of nephrolithiasis and urolithiasis using 1,2,3,4,6-penta-O-galloyl-beta-D-glucose (PGG)” (Mayo Foundation for Medical Education and Research, priority 2008, dated 2014).
# Key:
# hyaluronan = experiment: Hyaluronan expression by confocal microscopy and Western blot; type: cell-based, Canine
# Protocol: A middle line was scraped in the confluent MDCK 1 cells grown on coverslips using a 200 μL plastic pipette tip. The MDCK I cells on coverslips were then exposed to various concentrations (1, 5 and 10 μM) of PGG for 15 minutes or 24 hours at 37° C. The coverslips were rinsed three times with PBS, and fixed using 3.7% formaldehyde in PBS for 15 min. Cells were then rinsed three times with PBS and incubated with 1% goat serum for 1 h to block nonspecific binding sites. The goat serum was aspirated and the cells were incubated for 1 hour in a humidified chamber at 37° C. with biotinylated HABP. The cells were then washed with PBS (10 min×3) and then incubated 1 h with an avidin-conjugated Texas red (Molecular Probes, Eugene, Oreg.) in a humidified chamber at 37° C. Cells were again washed with PBS (10 min×3), and the coverslips were mounted onto glass slides using Slow-Fade (Molecular Probes, Eugene, Oreg.). The XZ section was scanned using a LSM 510 confocal microscope (Carl Zeiss, Oberkochen, Germany) equipped with an Axiovert 100M microscope and a c-Apochromat 63/1.2 numerical aperture water-immersion lens. Texas red was excited at 568-nm of an argon-krypton laser and the Emission for Texas red was collected at >585 nm.
# For Western blotting, MDCK-I cells with or without scrape-wounding 24 hours earlier were harvested and washed with cold PBS; PGG (1, 5, 10 μM) was added to the medium 15 min or 24 hours prior to harvest. Cells were incubated in lysis buffer (50 mM Tris-HCl (pH 7.4), 150 mM NaCl, 1% Triton X-100, 0.1% SDS and 1 mM EDTA) supplemented with protease inhibitors ([…] and 1 mM of 4-(2-aminoethyl) benzenesulfonyl fluoride) and phosphatase inhibitors (1 mM NaF and 1 mM Na3VO4) for 20 min on ice. Lysates were centrifuged at 14,000 g for 20 min at 4° C. Lysates containing […] of protein were fractionated by SDS-PAGE and electrotransferred to a Hybond ECL transfer membrane (Amersham Pharmacia, Arlington Heights, Ill.). The blocked membranes were then incubated with primary antibodies (1:200 dilution) of HABP. […]
# [1] = Toxicology study in mice orally fed with PGG; type: in vivo, ICR mice; details: oral 10, 20 and 40 mg/kg
# Protocol: To examine the optimal dose for animal study, a toxicology study was performed in mice orally fed with PGG (10, 20, and 40 mg/kg). Each group consisted of five ICR mice.
# MDCK I cells [2] = experiment: [14C]COM crystal binding assay; type: cell-based, Canine
# Protocol: Calcium oxalate monohydrate (COM) crystals were prepared from supersaturated solutions. To prepare radioactive COM crystals, [^14C]oxalic acid (30-60 mCi/mmol; ICN Biomedicals, Irivine, Calif., USA) was added to a sodium oxalate solution, producing a specific activity of 10^5 cpm/mL, and sufficient calcium chloride was then added to form a supersaturated solution. […] Dulbecco-Vogt modified Eagle's essential medium (DMEM; GIBCO, Life Technologies Inc., NY), antibiotic-antimycotics were purchased from GIBCO (Grand island, NY). Fetal bovine serum (FBS) was from JRH (Lenexa, Kans.). HEPES (N-[2-hydroxyethyl]piperazine-N′-[2-ethanesulfonic acid]), sodium bicarbonate, MTT (3-(4,5-dimethylthiazol-2-yl)-2,5-diphenyltetrazolium bromide, BSA (bovine serum albumin were obtained from Sigma Chemical Co. (St. Louis, Mo.).
# (§1) Renal epithelial cells were of the Madin-Darby Canine kidney (MDCK) line, type I, derived from the distal nephron. Cells were grown in DMEM containing 25 mmol/L glucose at 37° C. in a humidified atmosphere containing […] CO2. To prepare high-density, quiescent cultures at 1×10^6 cells/35-mm plastic plate (9.62 cm^2; Nunc, Naperville, Ill., USA) were performed in DMEM containing 10% fetal bovine serum. Two days later when the cells were confluent, the established monolayer was used in the examples that follow.
# MDCK I cells were treated with various concentrations (1, 5 and 10 μM) of PGG for 15 min or 24 h with and without wound damage and washed with phosphate-buffered saline (PBS, pH 7.4). Then [^14C] calcium oxalate monohydrate (COM) crystals were added to MDCK 1 cells, until a final concentration of 200 μg/mL (41.6 μg/cm^2 of cells) was achieved. The culture dishes were gently agitated for 5 seconds to uniformly distribute the crystals so that they settled to the surface of the cell monolayer under the force of gravity. After 2 min, the buffer was aspirated and the cells were washed 3 times with PBS. The cells and adherent crystals were then liquefied in 1 mL of 10% NaOH for 1 h and transferred to a scintillation vial containing 4.5 mL of Ecoscient (National Diagnostics, E. Palmetto, Fla., USA). The amount of radioactivity was measured, as described previously (See Riese, R. J. et al. Am J. Physiol (1992) 262: F177-84). Similarly, to precoat the [^14C]COM crystals with PGG, 0.4 mg [^14C]COM crystals were placed in a 5-mL tube containing 2 mL of a solution containing various concentrations (1, 5 and 10 μM) of PGG diluted in PBS. The crystals were incubated under end-over-end rotation for 15 min at room temperature, pelleted by centrifugation at 2,000 r.p.m. for 5 min, washed with PBS and then resuspended in 2 mL PBS. Two minutes later, the crystal binding activity was measured as described above.
# [3] = test system: hyperoxaluric wild type rats; experiment: Ethylene glycol/ammonium chloride induced nephrolithiasis in hyperoxaluric rats; type: in vivo, Harlan Sprague Dawley Rats; details: for Serum BUN (mean ± SD) / Serum Calcium (mean ± SD) / Serum Creatinine (mean ± SD) / Serum Phosphate (mean ± SD) / Serum Uric acid (mean ± SD): rat serum; for Urine Calcium / Urine Mean Vol ± SD / Urine Mean pH ± SD: rat urine; for Survival (%): rats
# Protocol: Rats were administered PGG, with and without ethylene glycol given to render the rats hyperoxaluric. The effect of PGG on renal crystal deposition was assessed, to confirm the ability of PGG to prevent crystal deposition. Urine of animals was collected and extensively studied to quantitate biochemical and functional changes, and determine the mechanism of the apparent salutary effects, in several studies outlined in Table 1. Functional effects of treated rat urine on crystal nucleation, growth, aggregation and cell interaction was also tested, and compared to urine from control animals.
# Six rats per group were treated (see Table 1 below). Harlan Sprague Dawley Rats (300 g) received 0.8% ethylene glycol and 1% ammonium chloride mixed with the drinking water to induce nephrolithiasis, PGG in 2 different doses (4 mg/kg and 20 mg/kg), or both for a full 4 weeks. The doses of PGG covered the range deemed effective in mouse experiments on angiogenesis over a 2-log range factored for relative body size. PGG was administered to all rats via […]. Urine was collected for chemistries and crystalluria quantification at weekly intervals, with full urinary inhibition studies at 3 weeks, and histologic evaluation after week 3. Kidneys were examined quantitatively for the presence of cortical and medullary crystals, as well as interstitial fibrosis, by a blinded observer. Crystal deposition within cortex and medulla were also quantified under polarizing microscopy using Metamorph software.
# Twenty four-hour rat urine samples were collected in a metabolic cage with sodium azide as a preservative. Urine was centrifuged, the pellet resuspended, and crystal size and quantity assessed in a hemocytometer.
# Spot urine or 24-hr urine samples from individual rats under study were assayed before and after hyperoxaluric treatment. Spot urine samples were collected directly into Eppendorf tubes, centrifuged at 5,000×g for 5 min to dispose of cell debris, and stored at −80° C. until use. Urinary concentrations of oxalate, calcium and other determinants of SS were measured. SS was calculated using the EQUIL2 program.
# Urine chemistry and enzymes were evaluated to measure urine pH, […] clearance, the presence and concentration of oxalate, calcium, citrate, and 8-Hydroxy-2′-deoxyguanosine (8-OH-dG). 8-OH-dG has been regarded as a potential marker of oxidative DNA damage induced by ROS. Urinary 8-OHdG was measured using a commercially available competitive 8-OHdG enzyme-linked immunosorbent assay kit. The number of oxalate crystal deposits in the kidneys was measured using a hematoxylin and eosin stain. Reverse transcriptase PCR (RT-PCR) was used to detect and quantify superoxide dismutase (SOD) mRNA and osteopontin mRNA. Immunohistochemical staining techniques were used to measure SOD and osteopontin protein expression […]. Blood chemistry was also studied to measure levels of creatinine, uric acid, phosphate, blood urea nitrogen (BUN), and malondialdehyde (MDA) in the subjects.
# MDCK I cells [4] = experiment: Wound healing assay (migration after scrape wounding); type: cell-based, Canine; details: Canis lupus familiaris, 24 h, FIG. 3, read-out: inhibiting wound healing (migration after scrape wounding)
# Protocol: as §1
# MDCK I cells were seeded in a 35-mm plastic plate to confluent status overnight and incubated with serum-free medium for 6 h. A plastic pipette tip (200 μl size) was used to scrape a line between the MDCK1 cells that was approximately 2 to 3 mm wide across the entire culture dish. The medium was replaced by serum-free medium including various concentrations (1, 5 and 10 μM) of PGG. After incubation at 37° C. for 24 h, each plate was photographed (100×) and quantified.
# MDCK I cells [5] = experiment: Cytotoxicity assay (MTT colorimetric assay); type: cell-based, Canine
# Protocol: as §1
# The effect of PGG on cytotoxicity against MDCK 1 cells was evaluated using a MTT (3-(4,5-dimethylthiazol-2-yl)-2,5-diphenyltetrazolium bromide) colorimetric assay. PGG was dissolved with dimethylsulfoxide (DMSO). The cells were seeded onto 96-well microplates at a density of 1×10^4 cells per well in 100 μL of DMEM containing 10% fetal bovine serum. […] Cells were incubated at 37° C. for 1 h and the optical density was measured using a microplate reader (Molecular Devices Co.) set at 570 nm. Cell viability was calculated as the percentage of viable cells in the PGG treated group versus those in the untreated control group using the following equation: cell viability (%)=[OD (PGG)−OD (Blank)/OD (Control)−OD (Blank)]×100.
smiles,measurement,setting,value
"O=C(OC[C@H]1O[C@@H](OC(=O)c2cc(O)c(O)c(O)c2)[C@H](OC(=O)c2cc(O)c(O)c(O)c2)[C@@H](OC(=O)c2cc(O)c(O)c(O)c2)[C@@H]1OC(=O)c1cc(O)c(O)c(O)c1)c1cc(O)c(O)c(O)c1 [PGG, 1,2,3,4,6-penta-O-galloyl-beta-D-glucose]","total cell hyaluronan expression by wounded monolayers (Western blot), effect versus 15 min","hyaluronan; 24 hours exposure, 1-10 μM, FIG. 6B",slightly more pronounced
same,hyaluronan expression on the surface of wounded MDCK 1 cells (confocal microscopy),"hyaluronan; PGG treatment 15 minutes or 24 hours, concentration dependent, FIG. 6A",attenuated
same,total cell hyaluronan expression by wounded monolayers (Western blot),"hyaluronan; within 15 minutes of PGG addition, FIG. 6B",decreased
same,"body weight of mice, PGG versus control groups",[1]; FIG. 7,no significant difference
same,hematological values,[1]; FIG. 9,did not affect
same,GOT and GPT levels,[1]; FIG. 10,did not affect
same,"shapes and weights of organs (spleen, liver, kidney, lung)",[1]; FIGS. 8 and 11,did not affect
same,COM crystal adhesion to MDCK I cells,"MDCK I cells [2]; PGG added to the buffer, concentration-dependent, FIG. 4A",significantly reduced
same,COM adhesion to scrape-wounded MDCK I cells,"MDCK I cells [2]; after 15 min or 24 h incubation time, FIGS. 2A and 2B",significantly inhibited
same,crystal binding by PGG-pretreated MDCK I cells,"MDCK I cells [2]; cells pretreated 15 minutes or 24 hours, FIG. 5",bound less crystals
same,binding of PGG-precoated COM crystals to cells,"MDCK I cells [2]; crystals precoated with PGG 15 min, concentration-dependent, FIG. 4B",decrease their subsequent binding to cells
same,survival rate compared with normal group,[3]; 20 mg/kg PGG,mirrored that of those in the normal group
same,Serum BUN (mean ± SD),[3]; PGG 4 mg/kg + EG,24.6 ± 3.9 mg/dL
same,Serum Calcium (mean ± SD),[3]; PGG 4 mg/kg + EG,10.9 ± 1.1 mg/dL
same,Serum Creatinine (mean ± SD),[3]; PGG 4 mg/kg + EG,0.6 ± 0.5 mg/dL
same,Serum Phosphate (mean ± SD),[3]; PGG 4 mg/kg + EG,10.7 ± 1.4 mg/dL
same,Serum Uric acid (mean ± SD),[3]; PGG 4 mg/kg + EG,2.9 ± 3.2 mg/dL
same,Urine Calcium,[3]; PGG 4 mg/kg + EG,2.95 ± 0.31
same,Urine Mean Vol ± SD,[3]; PGG 4 mg/kg + EG,33.0 ± 3.74 mL
same,Urine Mean pH ± SD,[3]; PGG 4 mg/kg + EG,6.7 ± 1.2
same,Survival (%),[3]; PGG 4 mg/kg,83%
same,Serum BUN (mean ± SD),[3]; PGG 20 mg/kg + EG,23.3 ± 3.7 mg/dL
same,Serum Calcium (mean ± SD),[3]; PGG 20 mg/kg + EG,10.5 ± 0.3 mg/dL
same,Serum Creatinine (mean ± SD),[3]; PGG 20 mg/kg + EG,0.6 ± 0.1 mg/dL
same,Serum Phosphate (mean ± SD),[3]; PGG 20 mg/kg + EG,9.4 ± 0.8 mg/dL
same,Serum Uric acid (mean ± SD),[3]; PGG 20 mg/kg + EG,1.6 ± 1.0 mg/dL
same,Urine Calcium,[3]; PGG 20 mg/kg + EG,3.52 ± 0.31
same,Urine Mean Vol ± SD,[3]; PGG 20 mg/kg + EG,34.7 ± 3.59 mL
same,Urine Mean pH ± SD,[3]; PGG 20 mg/kg + EG,7.1 ± 0.8
same,Survival (%),[3]; PGG 20 mg/kg,100%
same,survival time of the rats,"[3]; upon administration of PGG, FIG. 12 and Table 4",increased
same,number of stones (calcium oxalate in urine) versus stone group,"[3]; urine at 21 days, FIG. 14",considerably less
same,inhibition at 1 µM,MDCK I cells [4]; 1 μM PGG,2%
same,inhibition at 5 µM,MDCK I cells [4]; 5 μM PGG,26%
same,inhibition at 10 µM,MDCK I cells [4]; 10 μM PGG,49%
same,cytotoxicity against MDCK I cells,"MDCK I cells [5]; concentrations up to 25 uM, 24 h, FIG. 1",did not exert any significant cytotoxicity
same,cytotoxicity on MDCK I cells (FIG. 1 legend),MDCK I cells [5]; except at high concentrations,lack of cytotoxicity
